Entries after “also recorded” stand apart in the source; their conditions may differ.
Tests used:
[1] = target: T1, p53 pre-bound to GST-MDM2 (Homo sapiens, UniProt Q00987); assay: In vitro p53 ubiquitination assay; format: biochemical; conditions: cellular p53 pre-bound to GST-MDM2, FIG. 2G
T1 construct: made in house; host or cells: GST-MDM2: bacteria; p53: SaOS-p53 inducible cells
Experimental: d. In Vitro R53 Ubiguitination Assay
p53 protein from SaOS-p53 inducible cell lysate was purified from cells using GST-MDM2 (5 pmol) pre-bound to GS beads. Samples were then incubated with test compounds as above. Subsequently 2 μl rabbit E1, 1 μl UbcH5b, and 10 μg of ubiquitin were added. After reaction for 15 min at 23° C., samples were subject to SDS-PAGE under reducing conditions, transferred to nitrocellulose membranes and immunoblotted with anti-p53 (DO-1) followed by ECL using standard techniques.

Nedd4 = target: T2, Nedd4 (Homo sapiens, UniProt P46934); assay: In vitro ubiquitination assay (E1+E2+E3) with unrelated E3 ligase; format: biochemical; conditions: gel assay, FIG. 2B, 2C
T2 construct: made in house
T2 sequence (P46934 1-1319): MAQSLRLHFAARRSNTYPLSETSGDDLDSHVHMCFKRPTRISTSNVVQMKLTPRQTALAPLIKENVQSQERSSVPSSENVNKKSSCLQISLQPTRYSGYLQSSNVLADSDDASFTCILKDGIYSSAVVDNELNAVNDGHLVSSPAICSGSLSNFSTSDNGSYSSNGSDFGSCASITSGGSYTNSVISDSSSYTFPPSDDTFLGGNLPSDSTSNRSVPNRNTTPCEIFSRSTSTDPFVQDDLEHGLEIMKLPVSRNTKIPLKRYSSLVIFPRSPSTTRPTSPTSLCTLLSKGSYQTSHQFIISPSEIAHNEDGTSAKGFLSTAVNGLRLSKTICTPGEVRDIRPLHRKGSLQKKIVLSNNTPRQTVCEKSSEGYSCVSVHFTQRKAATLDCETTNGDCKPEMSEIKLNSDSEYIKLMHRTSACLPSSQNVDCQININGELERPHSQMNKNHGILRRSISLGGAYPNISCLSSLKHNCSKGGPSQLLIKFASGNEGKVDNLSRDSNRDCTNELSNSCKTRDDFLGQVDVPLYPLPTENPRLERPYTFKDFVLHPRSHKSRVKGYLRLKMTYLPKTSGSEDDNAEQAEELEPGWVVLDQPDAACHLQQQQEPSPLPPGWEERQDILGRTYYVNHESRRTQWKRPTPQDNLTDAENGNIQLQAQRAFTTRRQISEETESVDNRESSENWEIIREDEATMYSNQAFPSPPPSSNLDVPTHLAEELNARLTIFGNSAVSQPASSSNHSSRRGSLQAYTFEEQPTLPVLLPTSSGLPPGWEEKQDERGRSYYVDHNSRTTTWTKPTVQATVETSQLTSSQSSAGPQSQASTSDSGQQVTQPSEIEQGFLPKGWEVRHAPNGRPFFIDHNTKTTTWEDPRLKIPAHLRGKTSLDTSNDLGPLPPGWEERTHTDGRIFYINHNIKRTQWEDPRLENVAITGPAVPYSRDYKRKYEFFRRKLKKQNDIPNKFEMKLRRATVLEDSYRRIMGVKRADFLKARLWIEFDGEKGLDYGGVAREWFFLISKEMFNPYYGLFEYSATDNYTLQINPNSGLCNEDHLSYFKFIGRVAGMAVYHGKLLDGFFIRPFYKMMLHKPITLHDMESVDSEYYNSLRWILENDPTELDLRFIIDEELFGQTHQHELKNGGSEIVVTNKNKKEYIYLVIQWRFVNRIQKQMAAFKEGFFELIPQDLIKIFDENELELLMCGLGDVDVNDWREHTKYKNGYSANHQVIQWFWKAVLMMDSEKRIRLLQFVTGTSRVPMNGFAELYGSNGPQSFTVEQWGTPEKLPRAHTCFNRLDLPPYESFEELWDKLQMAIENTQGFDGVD
Experimental: 1 pmole per experimental point of bacterially expressed GST-MDM2 (or GST-Nedd) was coupled to glutathione Sepharose (GS) for 30 minutes at room temperature with tumbling, followed by 3× wash with 50 mM Tris pH 7.5. Following this, 20 μl of 1× buffer was added (40 μl 10× reaction buffer*, 40 μl 10× PCK**, 320 μl dH2O). The test compound in DMSO is then added to the desired concentration with an equal volume of DMSO used as a control. Samples are incubated with shaking for 1 hr at 23° C. To carry out the reaction, a pre-made cocktail of Rabbit E1 (Calbiochem #6620700)/UbcH5B/^32P Ub cocktail (1 μl/0.5 μl/1 μl) is added followed by 15 minutes shaking at 30° C. The reaction is terminated by addition of 8 μl 4× reducing SDS-PAGE loading buffer. After dissociating proteins from the beads at 100° C. for 2 minutes, samples are resolved on 6% PAGE followed by exposure of the dried gel to phosphor screen. Note: ^32P Ub is derived from GST-Ub that has been engineered to include a PKA phosphorylation site. This fusion protein is purified on glutathione Sepharose, phosphorylated, following this, the ^32P Ub ubiquitin is cleaved and purified away from the thrombin.

T1 sequence (Q00987 whole entry): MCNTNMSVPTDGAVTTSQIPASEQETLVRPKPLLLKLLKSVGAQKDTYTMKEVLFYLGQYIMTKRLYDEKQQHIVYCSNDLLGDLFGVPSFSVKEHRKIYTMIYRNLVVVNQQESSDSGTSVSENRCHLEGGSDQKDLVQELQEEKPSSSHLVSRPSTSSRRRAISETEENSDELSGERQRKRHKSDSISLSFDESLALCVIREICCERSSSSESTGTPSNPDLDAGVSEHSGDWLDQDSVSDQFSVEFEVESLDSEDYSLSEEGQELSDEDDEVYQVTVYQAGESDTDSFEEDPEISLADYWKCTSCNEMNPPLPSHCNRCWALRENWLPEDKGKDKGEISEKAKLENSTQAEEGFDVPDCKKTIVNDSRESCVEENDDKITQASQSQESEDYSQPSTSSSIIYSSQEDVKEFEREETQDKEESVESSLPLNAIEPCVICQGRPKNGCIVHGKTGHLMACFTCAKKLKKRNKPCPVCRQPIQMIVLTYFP
T1 sequence (P04637 whole entry partner): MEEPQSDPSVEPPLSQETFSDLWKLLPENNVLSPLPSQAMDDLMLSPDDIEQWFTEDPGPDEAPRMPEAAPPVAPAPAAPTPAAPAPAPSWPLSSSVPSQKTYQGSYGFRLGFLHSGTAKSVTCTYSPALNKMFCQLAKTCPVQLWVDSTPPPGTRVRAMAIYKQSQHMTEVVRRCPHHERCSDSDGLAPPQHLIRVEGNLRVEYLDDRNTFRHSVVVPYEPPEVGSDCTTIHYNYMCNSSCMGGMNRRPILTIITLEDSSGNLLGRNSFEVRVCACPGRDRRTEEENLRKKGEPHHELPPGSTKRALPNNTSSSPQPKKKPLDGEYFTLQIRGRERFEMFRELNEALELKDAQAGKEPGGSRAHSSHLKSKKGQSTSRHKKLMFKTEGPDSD

## O=c1nc2n(-c3cccc(Cl)c3)c3ccc([N+](=O)[O-])cc3cc-2c(=O)[nH]1 [Compound 98C07, 10-(-3-chloro-phenyl)-7-nitro-10H-pyrimido[4,5-b]quinoline-2,4-dione]
[1]
  inhibition of p53 ubiquitination by MDM2: significant dose-dependent inhibition of p53 ubiquitination
Nedd4
  selectivity of inhibition of MDM2 versus unrelated E3 ligase Nedd4: shows some selectivity as an inhibitor of MDM2; also recorded: specificity of MDM2
